Data on 1 molecule can be found in patent publication US11572590B2, “Methods for evaluating tumor cell spheroids using 3D microfluidic cell culture device” (Dana-Farber Cancer Institute, Inc., priority 2017, dated 2023).

Holding throughout (experiment): SelectScreen Kinase Profiling, single point inhibition and IC50 for off-target kinases
Type in all cases: biochemical

Test [1] has as its target off-target kinases (Homo sapiens, UniProt Q5S007, G2019S). The settings on record: ATP Km app, Adapta.
The target of test [2] is off-target kinases (Homo sapiens, UniProt P27361). The settings on record: MAPK3 (ERK1), ZLYTE, ATP Km app.
Chain of off-target kinases (Homo sapiens, UniProt P27361) (P27361 whole entry): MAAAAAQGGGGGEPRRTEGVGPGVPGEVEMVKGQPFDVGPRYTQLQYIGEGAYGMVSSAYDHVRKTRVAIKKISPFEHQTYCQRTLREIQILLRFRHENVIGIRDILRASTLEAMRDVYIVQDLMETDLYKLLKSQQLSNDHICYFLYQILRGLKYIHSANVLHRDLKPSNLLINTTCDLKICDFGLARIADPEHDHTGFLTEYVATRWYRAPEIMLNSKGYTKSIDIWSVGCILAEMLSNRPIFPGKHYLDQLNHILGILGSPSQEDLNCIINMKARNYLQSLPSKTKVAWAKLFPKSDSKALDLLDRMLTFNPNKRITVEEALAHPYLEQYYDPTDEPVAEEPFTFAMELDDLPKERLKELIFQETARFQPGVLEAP
Test [3] concerns the target T1, off-target kinases (Homo sapiens, UniProt O14920).
T1 sequence (O14920 1-756): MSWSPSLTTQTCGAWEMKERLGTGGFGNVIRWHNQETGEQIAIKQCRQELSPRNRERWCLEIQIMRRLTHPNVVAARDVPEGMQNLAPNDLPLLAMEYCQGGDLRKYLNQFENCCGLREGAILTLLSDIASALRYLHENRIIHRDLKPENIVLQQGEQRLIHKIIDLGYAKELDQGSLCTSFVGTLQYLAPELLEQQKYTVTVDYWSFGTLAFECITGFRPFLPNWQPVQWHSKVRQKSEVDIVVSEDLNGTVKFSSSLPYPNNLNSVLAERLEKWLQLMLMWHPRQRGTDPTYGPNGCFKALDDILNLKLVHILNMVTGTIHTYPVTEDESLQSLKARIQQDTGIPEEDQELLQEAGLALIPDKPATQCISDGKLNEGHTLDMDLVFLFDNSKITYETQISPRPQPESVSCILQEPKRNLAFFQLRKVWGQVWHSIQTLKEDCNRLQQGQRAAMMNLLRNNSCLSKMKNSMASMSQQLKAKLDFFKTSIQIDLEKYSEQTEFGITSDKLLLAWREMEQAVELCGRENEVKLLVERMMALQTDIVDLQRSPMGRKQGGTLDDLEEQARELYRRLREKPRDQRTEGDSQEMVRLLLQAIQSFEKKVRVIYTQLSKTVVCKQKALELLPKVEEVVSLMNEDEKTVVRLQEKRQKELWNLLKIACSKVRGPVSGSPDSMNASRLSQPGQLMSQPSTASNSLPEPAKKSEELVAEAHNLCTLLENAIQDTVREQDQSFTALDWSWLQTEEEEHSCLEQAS
The settings on record: IKBKB (IKK beta), ATP Km app, ZLYTE.

Test [4] addresses T2, off-target kinases (Homo sapiens, UniProt P42681).
T2 sequence (P42681 1-527): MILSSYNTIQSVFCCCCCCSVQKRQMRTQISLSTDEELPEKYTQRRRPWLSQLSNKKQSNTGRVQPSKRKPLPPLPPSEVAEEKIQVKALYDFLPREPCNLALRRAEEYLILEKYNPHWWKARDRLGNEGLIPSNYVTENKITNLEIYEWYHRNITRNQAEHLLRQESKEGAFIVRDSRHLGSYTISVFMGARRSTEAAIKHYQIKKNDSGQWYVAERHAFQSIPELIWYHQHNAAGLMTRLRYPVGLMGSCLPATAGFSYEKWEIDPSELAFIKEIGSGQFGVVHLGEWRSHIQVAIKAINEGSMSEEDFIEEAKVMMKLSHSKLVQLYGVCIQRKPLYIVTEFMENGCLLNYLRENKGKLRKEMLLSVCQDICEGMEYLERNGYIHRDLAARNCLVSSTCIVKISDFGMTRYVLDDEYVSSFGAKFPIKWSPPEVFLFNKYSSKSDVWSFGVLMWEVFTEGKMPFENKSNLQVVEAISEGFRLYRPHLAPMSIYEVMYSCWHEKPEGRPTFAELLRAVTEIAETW
Particulars: TXK, ZLYTE, ATP Km app.

For test [5], the target named is off-target kinases (Homo sapiens, UniProt Q02779). The settings on record: MAP3K10 (MLK2), LanthaScreen Binding. Background: TR-FRET usually uses a lanthanide donor and a delayed reading to cut background.
Chain of off-target kinases (Homo sapiens, UniProt Q02779) (Q02779 whole entry): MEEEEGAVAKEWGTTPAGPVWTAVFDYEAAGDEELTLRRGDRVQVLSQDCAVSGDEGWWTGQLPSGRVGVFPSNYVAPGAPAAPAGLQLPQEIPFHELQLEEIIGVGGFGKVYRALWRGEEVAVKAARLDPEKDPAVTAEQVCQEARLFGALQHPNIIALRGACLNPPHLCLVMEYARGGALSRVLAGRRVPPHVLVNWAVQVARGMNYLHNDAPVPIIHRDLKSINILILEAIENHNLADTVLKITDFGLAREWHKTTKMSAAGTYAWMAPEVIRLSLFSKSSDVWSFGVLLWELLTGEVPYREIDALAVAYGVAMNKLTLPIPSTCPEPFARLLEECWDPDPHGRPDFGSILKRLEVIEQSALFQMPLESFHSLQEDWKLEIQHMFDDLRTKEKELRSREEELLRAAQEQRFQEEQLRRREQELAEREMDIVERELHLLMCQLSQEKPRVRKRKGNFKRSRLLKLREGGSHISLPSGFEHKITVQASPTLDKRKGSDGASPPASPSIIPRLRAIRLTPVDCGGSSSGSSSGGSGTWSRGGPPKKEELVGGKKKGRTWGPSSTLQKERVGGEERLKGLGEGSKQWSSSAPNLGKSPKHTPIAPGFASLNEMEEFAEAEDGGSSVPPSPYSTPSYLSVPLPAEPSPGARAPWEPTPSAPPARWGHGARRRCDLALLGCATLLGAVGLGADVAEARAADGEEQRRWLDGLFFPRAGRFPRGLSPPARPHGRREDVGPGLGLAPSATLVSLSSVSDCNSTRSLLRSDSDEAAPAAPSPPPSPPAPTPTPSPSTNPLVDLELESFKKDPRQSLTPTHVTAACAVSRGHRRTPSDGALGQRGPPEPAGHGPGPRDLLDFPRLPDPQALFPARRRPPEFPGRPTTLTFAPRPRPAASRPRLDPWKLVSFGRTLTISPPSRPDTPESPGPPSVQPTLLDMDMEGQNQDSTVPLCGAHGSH
For test [6], the target named is off-target kinases (Homo sapiens, UniProt Q9UEW8). The settings on record: STK39 (STLK3), LanthaScreen.

Read-outs that look alike come from different tables or passages of the source.

Chain of off-target kinases (Homo sapiens, UniProt Q5S007, G2019S) (Q5S007 whole entry G2019S): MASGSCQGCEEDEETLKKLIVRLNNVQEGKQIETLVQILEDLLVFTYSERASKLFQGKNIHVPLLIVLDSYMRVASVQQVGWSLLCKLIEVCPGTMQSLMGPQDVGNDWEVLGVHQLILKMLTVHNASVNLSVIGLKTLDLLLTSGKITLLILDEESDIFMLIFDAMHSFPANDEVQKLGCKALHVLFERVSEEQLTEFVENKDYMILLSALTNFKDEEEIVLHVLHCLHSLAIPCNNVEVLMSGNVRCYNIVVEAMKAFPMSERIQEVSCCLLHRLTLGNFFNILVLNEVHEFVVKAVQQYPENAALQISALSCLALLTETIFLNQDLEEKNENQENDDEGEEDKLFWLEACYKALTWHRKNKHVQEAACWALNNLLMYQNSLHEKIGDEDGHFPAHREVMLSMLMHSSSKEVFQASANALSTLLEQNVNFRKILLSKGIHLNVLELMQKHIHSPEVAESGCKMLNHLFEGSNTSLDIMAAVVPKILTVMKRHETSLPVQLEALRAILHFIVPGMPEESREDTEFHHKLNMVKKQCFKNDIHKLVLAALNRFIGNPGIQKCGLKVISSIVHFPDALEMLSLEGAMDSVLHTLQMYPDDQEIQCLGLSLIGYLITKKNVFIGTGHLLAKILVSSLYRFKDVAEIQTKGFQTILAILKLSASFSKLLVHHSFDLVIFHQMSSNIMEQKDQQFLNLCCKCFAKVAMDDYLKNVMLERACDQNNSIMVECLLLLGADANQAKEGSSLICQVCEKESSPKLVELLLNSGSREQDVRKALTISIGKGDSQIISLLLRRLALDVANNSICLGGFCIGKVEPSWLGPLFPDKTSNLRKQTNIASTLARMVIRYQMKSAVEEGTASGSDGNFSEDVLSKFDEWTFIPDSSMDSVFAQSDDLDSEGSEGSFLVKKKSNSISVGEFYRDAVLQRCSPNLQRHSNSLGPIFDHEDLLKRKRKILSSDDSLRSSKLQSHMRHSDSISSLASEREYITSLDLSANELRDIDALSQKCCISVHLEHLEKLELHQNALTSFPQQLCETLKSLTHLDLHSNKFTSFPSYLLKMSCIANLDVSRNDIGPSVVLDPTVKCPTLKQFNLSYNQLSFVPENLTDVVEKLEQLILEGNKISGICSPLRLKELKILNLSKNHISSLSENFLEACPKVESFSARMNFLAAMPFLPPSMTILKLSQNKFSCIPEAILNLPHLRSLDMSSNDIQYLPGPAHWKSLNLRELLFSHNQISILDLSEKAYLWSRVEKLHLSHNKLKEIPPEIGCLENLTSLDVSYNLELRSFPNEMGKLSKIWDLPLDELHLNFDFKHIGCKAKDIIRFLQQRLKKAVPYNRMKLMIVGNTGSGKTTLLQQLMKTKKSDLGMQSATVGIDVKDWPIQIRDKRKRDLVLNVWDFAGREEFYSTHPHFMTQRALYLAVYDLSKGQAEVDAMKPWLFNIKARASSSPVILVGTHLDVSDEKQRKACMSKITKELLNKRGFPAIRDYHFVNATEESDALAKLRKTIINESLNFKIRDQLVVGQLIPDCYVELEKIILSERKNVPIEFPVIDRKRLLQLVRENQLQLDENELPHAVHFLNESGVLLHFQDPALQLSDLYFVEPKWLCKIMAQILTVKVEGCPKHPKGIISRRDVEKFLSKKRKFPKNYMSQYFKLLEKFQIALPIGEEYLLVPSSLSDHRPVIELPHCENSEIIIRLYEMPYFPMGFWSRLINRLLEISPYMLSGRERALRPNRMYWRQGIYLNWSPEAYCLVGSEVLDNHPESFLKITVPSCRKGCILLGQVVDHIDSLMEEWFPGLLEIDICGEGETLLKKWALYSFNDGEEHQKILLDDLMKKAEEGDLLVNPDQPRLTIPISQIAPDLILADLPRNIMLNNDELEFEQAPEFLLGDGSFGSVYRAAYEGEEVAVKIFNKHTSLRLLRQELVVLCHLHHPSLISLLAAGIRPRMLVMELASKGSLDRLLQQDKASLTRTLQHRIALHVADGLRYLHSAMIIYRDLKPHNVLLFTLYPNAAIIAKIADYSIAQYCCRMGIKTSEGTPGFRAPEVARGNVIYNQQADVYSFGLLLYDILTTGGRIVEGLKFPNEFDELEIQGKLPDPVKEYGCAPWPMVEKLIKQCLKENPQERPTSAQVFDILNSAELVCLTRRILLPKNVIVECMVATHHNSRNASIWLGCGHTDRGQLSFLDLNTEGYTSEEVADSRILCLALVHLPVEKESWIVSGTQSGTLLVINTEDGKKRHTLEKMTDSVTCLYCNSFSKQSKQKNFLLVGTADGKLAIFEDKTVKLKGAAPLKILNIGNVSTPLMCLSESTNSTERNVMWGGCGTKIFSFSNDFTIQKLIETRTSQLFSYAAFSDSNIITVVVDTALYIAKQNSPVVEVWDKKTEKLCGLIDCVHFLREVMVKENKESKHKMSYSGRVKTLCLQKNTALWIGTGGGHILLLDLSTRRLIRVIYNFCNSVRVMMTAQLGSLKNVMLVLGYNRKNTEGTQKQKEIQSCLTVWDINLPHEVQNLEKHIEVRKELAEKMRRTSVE

Usually inhibition stands for the change of the read-out against control, counted positive when it falls. As to `N#Cc1cc(-c2ncnc(Nc3ccc(N4CCN(C5COC5)CC4)cc3)n2)ccc1OC1CCOCC1` [Compound 1, 5-(4-((4-(4-(oxetan-3-yl)piperazin-1-yl)phenyl)amino)-1,3,5-triazin-2-yl)-2-((tetrahydro-2H-pyran-4-yl)oxy)benzonitrile], the inhibition on off-target kinases [1] (LRRK2 G2019S FL, read-out: % Inhibition 1) came to 100%; at off-target kinases [1] (LRRK2 G2019S FL, read-out: % Inhibition 2), 99%; at off-target kinases [1] (LRRK2 G2019S FL, read-out: % Inhibition Avg), 99%; at off-target kinases [1] (LRRK2 G2019S, read-out: % Inhibition 1) it was 99%; on off-target kinases [1] (LRRK2 G2019S, read-out: % Inhibition 2), 100%; on off-target kinases [1] (LRRK2 G2019S, read-out: % Inhibition Avg) it was 100%. Further, the inhibition was 3% on off-target kinases [2] (read-out: % Inhibition 1); -2% on off-target kinases [2] (read-out: % Inhibition 2); 0% on off-target kinases [2] (read-out: % Inhibition Avg); 52% at off-target kinases [3] (read-out: % Inhibition 1); 39% at off-target kinases [3] (read-out: % Inhibition 2); 45% at off-target kinases [3] (read-out: % Inhibition Avg). Also, the inhibition came to 27% at off-target kinases [4] (read-out: % Inhibition 1); 36% at off-target kinases [4] (read-out: % Inhibition 2); 31% at off-target kinases [4] (read-out: % Inhibition Avg); 58% at off-target kinases [5] (read-out: % Inhibition 1); 60% on off-target kinases [5] (read-out: % Inhibition 2); 59% on off-target kinases [5] (read-out: % Inhibition Avg). Besides, the inhibition is 10% at off-target kinases [6] (read-out: % Inhibition 1), 9% at off-target kinases [6] (read-out: % Inhibition 2) and 10% on off-target kinases [6] (read-out: % Inhibition Avg).
